Measurements published in patent US9303032B2, “2-(pyridin-2YL)-1, 7-diaza-spiro [4.4] nonane-6-one compound as voltage-gated sodium channels modulator” (CONVERGENCE PHARMACEUTICALS LIMITED, priority 2011, dated 2016).
Where a name gives a salt, the structure may show the parent alone.

Target: T1, hNaV1.7 (Homo sapiens, UniProt Q15858)
T1 construct: expressed in transfected cells; host or cells: HEK293
Assay: QPatch NaV1.7 assay
Type: cell-based
Settings: HEK293-hNaV1.7 cells; holding potential −90 mV, most channels in closed state; read-out: QP Nav1.7 −90 mV pIC50 (converted)
Procedure: The compounds of the invention were tested in a QPatch NaV1.7 assay.
HEK293-hNaV1.7 cells were grown in DMEM-F12+10% FBS culture media at 37° C. At a confluency of 50-70% cells were dissociated from culture flasks & triturated to ensure unicellular cell suspension; cell density was measured & adjusted to 2-3×10^6 cells/ml. Recordings were obtained using QPatch16×. The external solution was (in mM): NaCl, 128; KCl, 5; MgCl2, 2; CaCl2, 2; Glucose, 30; HEPES, 15; pH 7.3, 305-315 mOsm. Following seal formation and whole-cell access using internal solution (containing in mM: CsF, 135; EGTA/CsOH, ⅕; HEPES 10; NaCl, 10; pH 7.3, 310-320 mOsM), voltage pulse protocols were applied. Initially a steady state inactivation voltage protocol was used to determine the half-maximal voltage for steady state inactivation (V1/2 SSI). Two holding voltages were used to determine test drug inhibition: −90 mV, where most of the channels are in a closed state; and V1/2 SSI, where half of the channels are inactivated. Currents were elicited every 10 seconds by stepping to a membrane potential of 0 mV for 20 ms. Four-point cumulative concentration responses were derived by determining the peak current amplitude at each concentration of test drug over 120 second application. Curves were fitted with the Hill equation yielding pIC50 values at −90 mV and V1/2 SSI holding potentials.

T1 sequence (Q15858 whole entry): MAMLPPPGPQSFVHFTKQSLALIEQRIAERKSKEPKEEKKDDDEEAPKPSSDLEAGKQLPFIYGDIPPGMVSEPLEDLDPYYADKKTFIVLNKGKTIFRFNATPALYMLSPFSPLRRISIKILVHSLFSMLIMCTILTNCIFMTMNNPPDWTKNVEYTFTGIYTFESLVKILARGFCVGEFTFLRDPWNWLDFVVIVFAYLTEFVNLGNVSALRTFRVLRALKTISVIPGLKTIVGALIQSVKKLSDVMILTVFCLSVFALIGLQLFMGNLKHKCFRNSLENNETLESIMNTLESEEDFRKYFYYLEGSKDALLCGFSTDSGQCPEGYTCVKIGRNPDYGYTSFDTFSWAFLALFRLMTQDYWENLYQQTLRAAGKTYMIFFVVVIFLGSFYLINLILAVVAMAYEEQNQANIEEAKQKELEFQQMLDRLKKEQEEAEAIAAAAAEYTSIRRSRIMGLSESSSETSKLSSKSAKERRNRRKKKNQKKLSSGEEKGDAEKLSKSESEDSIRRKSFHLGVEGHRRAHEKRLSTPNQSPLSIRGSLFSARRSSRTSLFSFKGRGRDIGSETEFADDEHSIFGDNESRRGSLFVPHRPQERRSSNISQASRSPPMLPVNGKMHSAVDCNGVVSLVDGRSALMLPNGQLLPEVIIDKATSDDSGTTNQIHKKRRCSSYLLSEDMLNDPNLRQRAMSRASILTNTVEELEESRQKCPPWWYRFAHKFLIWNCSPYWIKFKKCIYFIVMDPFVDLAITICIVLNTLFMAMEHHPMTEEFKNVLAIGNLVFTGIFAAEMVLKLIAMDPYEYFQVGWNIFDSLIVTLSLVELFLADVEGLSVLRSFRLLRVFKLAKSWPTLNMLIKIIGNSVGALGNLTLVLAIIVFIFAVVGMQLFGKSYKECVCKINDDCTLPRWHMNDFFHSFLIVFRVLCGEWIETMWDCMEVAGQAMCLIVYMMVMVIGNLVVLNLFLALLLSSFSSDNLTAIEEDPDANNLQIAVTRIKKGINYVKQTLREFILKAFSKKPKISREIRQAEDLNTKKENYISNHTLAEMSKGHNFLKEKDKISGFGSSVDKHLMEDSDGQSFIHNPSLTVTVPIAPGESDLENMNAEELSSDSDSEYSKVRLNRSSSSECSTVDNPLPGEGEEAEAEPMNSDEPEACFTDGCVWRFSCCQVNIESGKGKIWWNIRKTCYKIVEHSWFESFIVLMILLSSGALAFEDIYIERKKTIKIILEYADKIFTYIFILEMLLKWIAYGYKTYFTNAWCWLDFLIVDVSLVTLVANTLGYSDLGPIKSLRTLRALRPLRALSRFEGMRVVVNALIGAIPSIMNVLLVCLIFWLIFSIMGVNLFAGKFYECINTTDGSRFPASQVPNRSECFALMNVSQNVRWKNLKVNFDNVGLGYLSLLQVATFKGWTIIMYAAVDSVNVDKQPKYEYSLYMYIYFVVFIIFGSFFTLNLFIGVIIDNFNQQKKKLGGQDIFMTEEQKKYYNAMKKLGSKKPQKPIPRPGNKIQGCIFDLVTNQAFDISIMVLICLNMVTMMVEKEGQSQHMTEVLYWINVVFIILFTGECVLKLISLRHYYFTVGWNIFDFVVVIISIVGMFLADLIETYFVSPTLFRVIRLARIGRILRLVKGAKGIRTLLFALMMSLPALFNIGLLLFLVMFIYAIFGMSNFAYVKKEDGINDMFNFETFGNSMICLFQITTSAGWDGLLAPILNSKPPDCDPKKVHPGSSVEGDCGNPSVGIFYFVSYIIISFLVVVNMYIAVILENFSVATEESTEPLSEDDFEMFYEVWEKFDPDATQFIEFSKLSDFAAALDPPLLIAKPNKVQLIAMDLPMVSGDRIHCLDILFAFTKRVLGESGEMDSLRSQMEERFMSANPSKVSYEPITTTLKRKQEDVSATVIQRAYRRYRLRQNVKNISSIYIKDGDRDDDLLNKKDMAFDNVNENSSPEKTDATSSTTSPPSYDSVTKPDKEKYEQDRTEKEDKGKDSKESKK

- IC50: 50.1 µM
Compound: CN1CC[C@@]2(CC[C@H](c3cc(-c4cccc(OC(F)(F)F)c4)ccn3)N2)C1=O [Example 1, (2R,5S)-7-Methyl-2-[4-[3-(trifluoromethoxy)phenyl]-2-pyridyl]-1,7-diazaspiro[4.4]nonan-6-one hydrochloride]
